Where a SMILES comes first, the peptide text is derived from it. Where no end group is shown, it is not given here. [ ]: non-standard residue; d: D form. Phe(4-CF3) = N[C@@H](Cc1ccc(C(F)(F)F)cc1)C(=O)O; Phe(3-Cl) = N[C@@H](Cc1cccc(Cl)c1)C(=O)O; Phe(4-Cl) = N[C@@H](Cc1ccc(Cl)cc1)C(=O)O; Pip = O=C(O)[C@@H]1CCCCN1; β3hD = NC(CC(=O)O)CC(=O)O; Nle = CCCC[C@H](N)C(=O)O
What was measured:
ExoI [1] = target: T1, ExoI (Escherichia coli, UniProt P04995); assay: Isothermal titration calorimetry with ExoI; assay type: binding, E. coli; settings: 20 mM Tris–HCl pH 8.0, 100 mM NaCl
T1 construct: His-tag (cleaved yes); host or cells: E. coli BL21 (DE3) pLysS
T1 sequence (P04995 whole entry): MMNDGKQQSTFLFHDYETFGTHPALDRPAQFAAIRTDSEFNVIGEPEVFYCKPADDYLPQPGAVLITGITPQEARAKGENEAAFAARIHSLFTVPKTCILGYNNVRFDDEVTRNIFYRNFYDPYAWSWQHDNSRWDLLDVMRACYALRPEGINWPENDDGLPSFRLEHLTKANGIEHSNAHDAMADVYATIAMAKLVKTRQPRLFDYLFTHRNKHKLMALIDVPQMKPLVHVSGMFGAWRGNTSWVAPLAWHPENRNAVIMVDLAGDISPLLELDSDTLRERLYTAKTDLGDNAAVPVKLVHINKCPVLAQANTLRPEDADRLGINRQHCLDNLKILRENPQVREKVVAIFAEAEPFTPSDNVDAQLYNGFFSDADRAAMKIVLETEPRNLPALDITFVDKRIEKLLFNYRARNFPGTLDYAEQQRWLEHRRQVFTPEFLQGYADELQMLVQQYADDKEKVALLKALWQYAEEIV
Protocol: (§1) Isothermal titration calorimetry (ITC) experiments were performed using a MicroCal VP-ITC titration microcalorimeter. ExoI was dialyzed extensively against the indicated buffer and cleared through centrifugation at 14,000 rpm for 15 min at 4 °C. RecO was subjected to a quick buffer exchange using an Amicon Ultra ultrafiltration device (Sigma). Protein concentrations were determined after the buffer exchange procedure.
(§2) The raw data were integrated using NITPIC [39]. The binding parameters, association equilibrium constant (KA), binding enthalpy (ΔH), and binding entropy (ΔS) were obtained by fitting the titration curves to a model of A + B = C in SEDPHAT [40]. Stoichiometry was fixed to 1:1 and the incompetent fraction was fitted for the protein concentration.

ExoI [2] = settings: 1 µM biotin-tagged peptide on streptavidin beads, lysate with 1 µM recombinant ExoI, 30 min; on-bead tryptic digestion, nanoLC-MS/MS intensities
Protocol: ExoI and RecO expressing cells were grown and lysed, as mentioned above. A fraction of cell lysate was used to quantify the recombinant protein content. BL21 (DE)3 pLysS cells were grown on LB media until OD600 = 2.0 and lysed using sonication. Recombinant protein containing lysates were diluted with BL21 (DE)3 pLysS lysate, setting the final concentration of the recombinant protein to 1 µM. SSB peptides (wtSSB, E1-sSSB, R2-sSSB) were immobilized onto Streptavidin DynaBeads using an N-terminal biotin tag. Then, 1 µM immobilized peptides were incubated with cell lysate for 30 min. Beads were washed with trypsin digestion buffer (20 mM TRIS pH = 8.0, 100 mM NaCl, 2 mM CaCl2). Beads were processed with an on-pellet digestion protocol. NanoLC-MS/MS analysis was carried out on a Waters ACQUITY UPLC M-Class LC system (Waters, Milford, MA, USA) coupled with a Q Exactive^TM Plus Hybrid Quadrupole-Orbitrap^TM mass spectrometer (Thermo Fisher Scientific, Waltham, MA, USA). The instrument was operated in the data-dependent mode. […]
To test the affinity improvement for E1-sSSB-Ct and R2-sSSB-Ct relative to wtSSB-Ct in a complex environment, we carried out a pull-down assay using bacterial cell lysates. […] The washed bead was digested, and tryptic peptides were detected using HPLC-MS.

RecO = target: T2, RecO (Escherichia coli, UniProt P0A7H3); assay: Isothermal titration calorimetry with RecO; assay type: binding; settings: 50 mM HEPES pH 7.5, 50 mM NaCl, 25% glycerol; read-out: KD, ITC, RecO
T2 construct: His-tag (TEV site) (N, cleaved yes); made in house; host or cells: E. coli Rosetta cells
Protocol: as §1, §2

Escherichia coli RecO [3] = target: T3, Escherichia coli RecO (Escherichia coli, UniProt P0A7H3 1-242); assay: fluorescence polarisation; competition fluorescence anisotropy: 0.5 µM RecO, 50 nM F-wtSSB tracer, 0–500 µM unlabeled peptide, 30 min at room temperature, read at 25 °C; 20 mM Tris-HCl pH 8.0, 200 mM NaCl, 1 mM 2-mercaptoethanol, 10% glycerol, 0.01% Triton-X 100; settings: both partners purified
T3 construct: RecO of Escherichia coli, synthetic gene in pET28a+ with a TEV site at the 5' end; The His tag was cut off with TEV protease only for the purified protein; source: E. coli Rosetta, purified (Ni-NTA, heparin); also in cell lysate (pull-down); not shown: His tag, N-terminal, cleaved
T3 sequence: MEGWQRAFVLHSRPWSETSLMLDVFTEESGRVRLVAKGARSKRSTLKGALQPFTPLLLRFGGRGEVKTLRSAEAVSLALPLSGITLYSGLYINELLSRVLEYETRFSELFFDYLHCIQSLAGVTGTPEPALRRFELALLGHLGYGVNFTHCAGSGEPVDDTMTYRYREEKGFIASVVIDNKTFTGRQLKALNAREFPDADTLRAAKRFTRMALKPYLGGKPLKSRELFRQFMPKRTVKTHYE

[4] = target: R2-sSSB with an N-terminal biotin tag, on Streptavidin DynaBeads (E. coli); assay: affinity purification with mass spectrometry; pull-down: 1 µM biotin peptide on Streptavidin DynaBeads, 30 min with E. coli lysate holding 1 µM recombinant ExoI or RecO; on-pellet tryptic digestion, nanoLC-MS/MS
Escherichia coli RecO [5] = target: T3, Escherichia coli RecO; assay: ITC; peptide in the syringe titrated into RecO in the cell; 50 mM HEPES pH 7.5, 50 mM NaCl, 25% glycerol, 1 mM TCEP; model A + B = C, stoichiometry fixed to 1:1, incompetent fraction fitted; settings: both partners purified
[6] = target: E1-sSSB with an N-terminal biotin tag, on Streptavidin DynaBeads (E. coli); assay: affinity purification with mass spectrometry; pull-down: 1 µM biotin peptide on Streptavidin DynaBeads, 30 min with E. coli lysate holding 1 µM recombinant ExoI or RecO; on-pellet tryptic digestion, nanoLC-MS/MS

CC(=O)N[C@@H](CCC(=O)O)C(=O)N[C@@H](Cc1ccc(C(F)(F)F)cc1)C(=O)N[C@@H](CC(=O)O)C(=O)N[C@@H](CC(=O)O)CC(=O)N[C@@H](CCC(=O)O)C(=O)N[C@@H](CC(C)C)C(=O)N1CCCC[C@H]1C(=O)N[C@@H](Cc1ccc(C(F)(F)F)cc1)C(=O)O [E1-sSSB-Ct] (Ac-E[Phe(4-CF3)]D[β3hD]EL[Pip][Phe(4-CF3)]-OH)
ΔG, ITC, ExoI (ExoI [1]): -10.89 kcal/mol | −TΔS, ITC, ExoI (ExoI [1]): 6.46 kcal/mol | N (stoichiometry), ITC, ExoI (ExoI [1]; 1 mM MgCl2, 4% glycerol, model A + B = C, stoichiometry fixed 1:1, incompetent fraction fitted): 1.0000 | ΔH, ITC, ExoI (ExoI [1]; confidence interval in brackets): −17.35 (−18.34–−16.43) kcal/mol | Kd (ExoI [1]; read-out: KD, ITC, ExoI (in nM), 1:1 stoichiometry): 19 nM | enrichment of ExoI on immobilized peptide compared to wtSSB-Ct (ExoI [2]): two-fold

CC[C@H](C)[C@H](NC(=O)[C@H](CC(=O)O)NC(=O)[C@H](CC(=O)O)NC(=O)[C@H](CC(=O)O)NC(=O)[C@H](Cc1ccc(Cl)cc1)NC(=O)[C@H](CC(=O)O)NC(C)=O)C(=O)N1CCC[C@H]1C(=O)N[C@@H](Cc1cccc(Cl)c1)C(=O)O [R2-sSSB-Ct] (Ac-D[Phe(4-Cl)]DDDIP[Phe(3-Cl)]-OH)
Kd (RecO): 35 nM

Ac-DFDDD[Nle]PF [mSSB-Ct nLe6 (unlabelled single mutant)]
IC50 (Escherichia coli RecO [3]): 2550 nM

B1: Escherichia coli RecO (natural protein)
chain: MEGWQRAFVLHSRPWSETSLMLDVFTEESGRVRLVAKGARSKRSTLKGALQPFTPLLLRFGGRGEVKTLRSAEAVSLALPLSGITLYSGLYINELLSRVLEYETRFSELFFDYLHCIQSLAGVTGTPEPALRRFELALLGHLGYGVNFTHCAGSGEPVDDTMTYRYREEKGFIASVVIDNKTFTGRQLKALNAREFPDADTLRAAKRFTRMALKPYLGGKPLKSRELFRQFMPKRTVKTHYE
fold enrichment as compared to wtSSB-Ct [4]: 10 fold

B2: R2-sSSB-Ct (Asp–4Cl-Phe–Asp–Asp–Asp–Ile–Pro–3Cl-Phe) (peptide)
peptide: Ac-D[Phe(4-Cl)]DDDIP[Phe(3-Cl)]
notes: SSB-Ct of E. coli SSB (residues 171-178), printed in three-letter code; F2 stands for 4Cl-Phe, F8 for 3Cl-Phe; numbers count on: the octapeptide (position 1 = SSB residue 171); source: synthetic peptide
Kd (Escherichia coli RecO [5]): 40 nM | dH (Escherichia coli RecO [5]): -23.5 kcal/mol | stoichiometry N (Escherichia coli RecO [5]): 1 | IC50 (Escherichia coli RecO [3]): 590 nM

B3: E. coli Exonuclease I (enzyme)
chain: MMNDGKQQSTFLFHDYETFGTHPALDRPAQFAAIRTDSEFNVIGEPEVFYCKPADDYLPQPGAVLITGITPQEARAKGENEAAFAARIHSLFTVPKTCILGYNNVRFDDEVTRNIFYRNFYDPYAWSWQHDNSRWDLLDVMRACYALRPEGINWPENDDGLPSFRLEHLTKANGIEHSNAHDAMADVYATIAMAKLVKTRQPRLFDYLFTHRNKHKLMALIDVPQMKPLVHVSGMFGAWRGNTSWVAPLAWHPENRNAVIMVDLAGDISPLLELDSDTLRERLYTAKTDLGDNAAVPVKLVHINKCPVLAQANTLRPEDADRLGINRQHCLDNLKILRENPQVREKVVAIFAEAEPFTPSDNVDAQLYNGFFSDADRAAMKIVLETEPRNLPALDITFVDKRIEKLLFNYRARNFPGTLDYAEQQRWLEHRRQVFTPEFLQGYADELQMLVQQYADDKEKVALLKALWQYA
fold enrichment as compared to wtSSB-Ct [6]: 2 fold

From publication PMC10143822, “Structural Adaptation of the Single-Stranded DNA-Binding Protein C-Terminal to DNA Metabolizing Partners Guides Inhibitor Design” (Pharmaceutics, 2023)
